Measurements published in PubChem BioAssay AID1919014 (Molecular Pharmacology Branch, DTP, NCI, 2023).
Several values for one entry are separate records, joined by “and”; a condition that tells them apart may be missing. Equal values may be shown once. Values belong to the compound of their own block, whether it stands above or below them.

Tested on: NCI-H1341 complex spheroids, percent test/control
Experiment: Anticancer human tumor NCI-H1341 cell line growth inhibition [AhR];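 further: spheroids exposed to agents for seven days before readout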
Details: for viability, T/C: stronger effect = lower value
Summary of the method: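 Agents were dosed in half-log steps down from roughly clinical Cmax, or from 10 microM where Cmax was unknown, alone and with AhR antagonists. Read-out: percent test/control growth of tumor spheroids containing HUVEC and MSC stromal cells.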

[1] = curve of first compound, second compound 0.1 µM
[2] = curve of first compound, second compound 0.316 µM
[3] = curve of first compound, second compound 1 µM
[4] = curve of first compound, second compound 3.16 µM
[5] = curve of first compound, second compound 10 µM
[6] = second compound 0.1 µM, first compound 0.0316 µM
[7] = second compound 0.1 µM, first compound 0.1 µM
[8] = second compound 0.1 µM, first compound 0.316 µM
[9] = second compound 0.1 µM, first compound 1 µM
[10] = second compound 0.1 µM, first compound 3.16 µM
[11] = second compound 0.1 µM, first compound 10 µM
[12] = second compound 0.316 µM, first compound 0.0316 µM
[13] = second compound 0.316 µM, first compound 0.1 µM
[14] = second compound 0.316 µM, first compound 0.316 µM
[15] = second compound 0.316 µM, first compound 1 µM
[16] = second compound 0.316 µM, first compound 3.16 µM
[17] = second compound 0.316 µM, first compound 10 µM
[18] = second compound 1 µM, first compound 0.0316 µM
[19] = second compound 1 µM, first compound 0.1 µM
[20] = second compound 1 µM, first compound 0.316 µM
[21] = second compound 1 µM, first compound 1 µM
[22] = second compound 1 µM, first compound 3.16 µM
[23] = second compound 1 µM, first compound 10 µM
[24] = second compound 3.16 µM, first compound 0.0316 µM
[25] = second compound 3.16 µM, first compound 0.1 µM
[26] = second compound 3.16 µM, first compound 0.316 µM
[27] = second compound 3.16 µM, first compound 1 µM
[28] = second compound 3.16 µM, first compound 3.16 µM
[29] = second compound 3.16 µM, first compound 10 µM
[30] = second compound 10 µM, first compound 0.0316 µM
[31] = second compound 10 µM, first compound 0.1 µM
[32] = second compound 10 µM, first compound 0.316 µM
[33] = second compound 10 µM, first compound 1 µM
[34] = second compound 10 µM, first compound 3.16 µM
[35] = second compound 10 µM, first compound 10 µM
[36] = second compound 0.1 µM, first compound 0.00949 µM
[37] = second compound 0.1 µM, first compound 0.03 µM
[38] = second compound 0.1 µM, first compound 0.0949 µM
[39] = second compound 0.1 µM, first compound 0.3 µM
[40] = second compound 0.316 µM, first compound 0.00949 µM
[41] = second compound 0.316 µM, first compound 0.03 µM
[42] = second compound 0.316 µM, first compound 0.0949 µM
[43] = second compound 0.316 µM, first compound 0.3 µM
[44] = second compound 1 µM, first compound 0.00949 µM
[45] = second compound 1 µM, first compound 0.03 µM
[46] = second compound 1 µM, first compound 0.0949 µM
[47] = second compound 1 µM, first compound 0.3 µM
[48] = second compound 3.16 µM, first compound 0.00949 µM
[49] = second compound 3.16 µM, first compound 0.03 µM
[50] = second compound 3.16 µM, first compound 0.0949 µM
[51] = second compound 3.16 µM, first compound 0.3 µM
[52] = second compound 10 µM, first compound 0.00949 µM
[53] = second compound 10 µM, first compound 0.03 µM
[54] = second compound 10 µM, first compound 0.0949 µM
[55] = second compound 10 µM, first compound 0.3 µM

IC50 (curve of compound): 29.9 nM and 56.8 nM and 71.3 nM
Compound: CC[C@@]1(O)C(=O)OCc2c1cc1n(c2=O)Cc2cc3c(CN(C)C)c(O)ccc3nc2-1
viability, T/C (compound 0.000316 µM): 89.2% and 92.2% and 98.9% | viability, T/C (compound 0.001 µM): 94.4% and 86.7% and 107% | viability, T/C (compound 0.00316 µM): 89.6% and 91.8% and 112% | viability, T/C (compound 0.01 µM): 80.9% and 79.7% and 87.2% | viability, T/C (compound 0.0316 µM): 48.4% and 65.8% and 57.3% | viability, T/C (compound 0.1 µM): 35.3% and 35% and 46.5%

IC50 [1]: 12.3 nM | IC50 [2]: 7.9 nM | IC50 [3]: 9.6 nM | IC50 [4]: 5.17 nM | IC50 [5]: 3.47 nM
Compound: CCc1c2c(nc3ccc(O)cc13)-c1cc3c(c(=O)n1C2)COC(=O)[C@]3(O)CC + CC(CO)NC(=O)c1cc(-c2ccc(Cl)cc2)nn(-c2cnn(C)c2)c1=O
viability, T/C (second compound 0.1 µM, first compound 0.000949 µM): 67.7% | viability, T/C (second compound 0.1 µM, first compound 0.003 µM): 74% | viability, T/C [36]: 46.6% | viability, T/C [37]: 38.8% | viability, T/C [38]: 30.7% | viability, T/C [39]: 16.9% | viability, T/C (second compound 0.316 µM, first compound 0.000949 µM): 71.8% | viability, T/C (second compound 0.316 µM, first compound 0.003 µM): 61.8% | viability, T/C [40]: 48.1% | viability, T/C [41]: 33.4% | viability, T/C [42]: 26.5% | viability, T/C [43]: 16% | viability, T/C (second compound 1 µM, first compound 0.000949 µM): 62.8% | viability, T/C (second compound 1 µM, first compound 0.003 µM): 67.6% | viability, T/C [44]: 48.2% | viability, T/C [45]: 31.4% | viability, T/C [46]: 29.5% | viability, T/C [47]: 17.4% | viability, T/C (second compound 3.16 µM, first compound 0.000949 µM): 73% | viability, T/C (second compound 3.16 µM, first compound 0.003 µM): 53.2% | viability, T/C [48]: 39% | viability, T/C [49]: 37.4% | viability, T/C [50]: 26.5% | viability, T/C [51]: 14.1% | viability, T/C (second compound 10 µM, first compound 0.000949 µM): 61% | viability, T/C (second compound 10 µM, first compound 0.003 µM): 47.9% | viability, T/C [52]: 43.8% | viability, T/C [53]: 32.4% | viability, T/C [54]: 23.4% | viability, T/C [55]: 10.8%

Continued, compound first:

Compound: COc1cc(C2c3cc4c(cc3C(OC3OC5COC(C)OC5C(O)C3O)C3COC(=O)C23)OCO4)cc(OC)c1O (stereo unspecified) + Cc1cncc(-c2nc(NCCc3c[nH]c4ccccc34)c3ncn(C(C)C)c3n2)c1
IC50 [1]: 416 nM | IC50 [2]: 611 nM | IC50 [3]: 283 nM | IC50 [4]: 233 nM | IC50 [5]: < 31.6 nM | viability, T/C [6]: 74.3% | viability, T/C [7]: 89.4% | viability, T/C [8]: 54.7% | viability, T/C [9]: 36.6% | viability, T/C [10]: 34.1% | viability, T/C [11]: 34% | viability, T/C [12]: 79.5% | viability, T/C [13]: 76.3% | viability, T/C [14]: 62.2% | viability, T/C [15]: 40.9% | viability, T/C [16]: 35.1% | viability, T/C [17]: 34.2% | viability, T/C [18]: 74.9% | viability, T/C [19]: 72.9% | viability, T/C [20]: 47.6% | viability, T/C [21]: 36% | viability, T/C [22]: 40.5% | viability, T/C [23]: 34.2% | viability, T/C [24]: 76.1% | viability, T/C [25]: 61.4% | viability, T/C [26]: 41.7% | viability, T/C [27]: 44% | viability, T/C [28]: 35.7% | viability, T/C [29]: 32.7% | viability, T/C [30]: 30.6% | viability, T/C [31]: 27.4% | viability, T/C [32]: 23.1% | viability, T/C [33]: 23.5% | viability, T/C [34]: 14% | viability, T/C [35]: 14.1%

Compound: CC1COCCN1c1cc(C2(S(C)(=N)=O)CC2)nc(-c2ccnc3[nH]ccc23)n1 (stereo unspecified)
viability, T/C (compound 0.0316 µM): 78.3% and 98.6% and 99.5% | viability, T/C (compound 0.1 µM): 102% and 101% and 88.4% | viability, T/C (compound 0.316 µM): 83.1% and 114% and 76.1% | viability, T/C (compound 1 µM): 96.3% and 75.8% and 66.2% | viability, T/C (compound 3.16 µM): 60.8% and 47.8% and 37.9% | viability, T/C (compound 10 µM): 23.1% and 30.4% and 20.2% | IC50 (curve of compound): 4400 nM and 2570 nM and 1910 nM

Compound: Nc1ncn(C2CC(O)C(CO)S2)c(=O)n1 (stereo unspecified)
viability, T/C (compound 0.000949 µM): 109% and 96.2% and 95% | viability, T/C (compound 0.003 µM): 90.5% and 73.4% and 100% | viability, T/C (compound 0.00949 µM): 115% and 102% and 104% | viability, T/C (compound 0.03 µM): 105% and 80.6% and 104% | viability, T/C (compound 0.0949 µM): 89.2% and 68.3% and 79% | viability, T/C (compound 0.3 µM): 68.2% and 49.5% and 62% | IC50 (curve of compound): > 300 nM and 294 nM

Compound: CC(C)c1c(-c2ccccc2)nc2c(C#N)c[nH]n2c1=O + CC(CO)NC(=O)c1cc(-c2ccc(Cl)cc2)nn(-c2cnn(C)c2)c1=O
IC50 [1]: > 10000 nM | IC50 [2]: > 10000 nM | IC50 [3]: > 10000 nM | IC50 [4]: > 10000 nM | IC50 [5]: > 10000 nM | viability, T/C [6]: 85.4% | viability, T/C [7]: 89.8% | viability, T/C [8]: 78.7% | viability, T/C [9]: 82.6% | viability, T/C [10]: 101% | viability, T/C [11]: 88.4% | viability, T/C [12]: 86.8% | viability, T/C [13]: 95.6% | viability, T/C [14]: 93% | viability, T/C [15]: 100% | viability, T/C [16]: 86.5% | viability, T/C [17]: 73% | viability, T/C [18]: 96.1% | viability, T/C [19]: 91.2% | viability, T/C [20]: 95.6% | viability, T/C [21]: 94.5% | viability, T/C [22]: 76.2% | viability, T/C [23]: 69.5% | viability, T/C [24]: 84.5% | viability, T/C [25]: 99.2% | viability, T/C [26]: 106% | viability, T/C [27]: 81.8% | viability, T/C [28]: 64.5% | viability, T/C [29]: 79.1% | viability, T/C [30]: 86.2% | viability, T/C [31]: 74.4% | viability, T/C [32]: 74.2% | viability, T/C [33]: 71.6% | viability, T/C [34]: 70.9% | viability, T/C [35]: 59.8%

Compound: O=C(C=Cn1cnc(-c2cc(C(F)(F)F)cc(C(F)(F)F)c2)n1)NNc1cnccn1 + CC(CO)NC(=O)c1cc(-c2ccc(Cl)cc2)nn(-c2cnn(C)c2)c1=O
IC50 [1]: 47.3 nM | IC50 [2]: 38.7 nM | IC50 [3]: 53.4 nM | IC50 [4]: 39.2 nM | IC50 [5]: 32.2 nM | viability, T/C [36]: 70.1% | viability, T/C [37]: 66% | viability, T/C [38]: 25.8% | viability, T/C [39]: 8.14% | viability, T/C (second compound 0.1 µM, first compound 0.949 µM): 7.31% | viability, T/C (second compound 0.1 µM, first compound 3 µM): 3.24% | viability, T/C [40]: 81.5% | viability, T/C [41]: 56.4% | viability, T/C [42]: 26.9% | viability, T/C [43]: 8.82% | viability, T/C (second compound 0.316 µM, first compound 0.949 µM): 4.72% | viability, T/C (second compound 0.316 µM, first compound 3 µM): 3.56% | viability, T/C [44]: 72.9% | viability, T/C [45]: 76.5% | viability, T/C [46]: 25.3% | viability, T/C [47]: 7.32% | viability, T/C (second compound 1 µM, first compound 0.949 µM): 5.36% | viability, T/C (second compound 1 µM, first compound 3 µM): 3.2% | viability, T/C [48]: 70.9% | viability, T/C [49]: 56.6% | viability, T/C [50]: 27.3% | viability, T/C [51]: 7.55% | viability, T/C (second compound 3.16 µM, first compound 0.949 µM): 4.07% | viability, T/C (second compound 3.16 µM, first compound 3 µM): 4.94% | viability, T/C [52]: 62.8% | viability, T/C [53]: 51% | viability, T/C [54]: 27.2% | viability, T/C [55]: 8.24% | viability, T/C (second compound 10 µM, first compound 0.949 µM): 5.11% | viability, T/C (second compound 10 µM, first compound 3 µM): 4.13%
